Experimental data reported in ChEMBL document CHEMBL3044740, “Syntheses and evaluation of 2,5-disubstituted 4-thiazolidinone analogues as antimicrobial agents” (2012).
The source made the active and inactive calls. The calls are words filed in the database; no cut-off is given here.

Legend:
Type in all cases: functional
Candida albicans [1] = test: Antifungal activity against Candida albicans MTCC 227 at 300 ug/ml by cup-plate method; conditions: for zone of inhibition at 300 µg/mL: read-out: DIZ
Candida albicans [2] = test: Antifungal activity against Candida albicans MTCC 227 at 200 ug/ml by cup-plate method; conditions: for zone of inhibition at 200 µg/mL: read-out: DIZ
Escherichia coli [3] = test: Antibacterial activity against Escherichia coli MTCC 739 at 300 ug/ml by cup-plate method; conditions: for zone of inhibition at 300 µg/mL: read-out: DIZ
Candida albicans [4] = test: Antifungal activity against Candida albicans MTCC 227 at 100 ug/ml by cup-plate method; conditions: for zone of inhibition at 100 µg/mL: read-out: DIZ
Escherichia coli [5] = test: Antibacterial activity against Escherichia coli MTCC 739 at 200 ug/ml by cup-plate method; conditions: for zone of inhibition at 200 µg/mL: read-out: DIZ
Escherichia coli [6] = test: Antibacterial activity against Escherichia coli MTCC 739 at 100 ug/ml by cup-plate method; conditions: for zone of inhibition at 100 µg/mL: read-out: DIZ
Pseudomonas aeruginosa [7] = test: Antibacterial activity against Pseudomonas aeruginosa MTCC 2453 at 300 ug/ml by cup-plate method; conditions: for zone of inhibition at 300 µg/mL: read-out: DIZ
Pseudomonas aeruginosa [8] = test: Antibacterial activity against Pseudomonas aeruginosa MTCC 2453 at 200 ug/ml by cup-plate method; conditions: for zone of inhibition at 200 µg/mL: read-out: DIZ
Pseudomonas aeruginosa [9] = test: Antibacterial activity against Pseudomonas aeruginosa MTCC 2453 at 100 ug/ml by cup-plate method; conditions: for zone of inhibition at 100 µg/mL: read-out: DIZ
Bacillus subtilis [10] = test: Antibacterial activity against Bacillus subtilis MTCC 121 at 300 ug/ml by cup plate method; conditions: read-out: DIZ
Bacillus subtilis [11] = test: Antibacterial activity against Bacillus subtilis MTCC 121 at 200 ug/ml by cup plate method; conditions: read-out: DIZ
Bacillus subtilis [12] = test: Antibacterial activity against Bacillus subtilis MTCC 121 at 100 ug/ml by cup plate method; conditions: read-out: DIZ
Staphylococcus aureus [13] = test: Antibacterial activity against Staphylococcus aureus MTCC 96 at 300 ug/ml by cup-plate method; conditions: read-out: DIZ
Staphylococcus aureus [14] = test: Antibacterial activity against Staphylococcus aureus MTCC 96 at 200 ug/ml by cup-plate method; conditions: read-out: DIZ
Staphylococcus aureus [15] = test: Antibacterial activity against Staphylococcus aureus MTCC 96 at 100 ug/ml by cup-plate method; conditions: read-out: DIZ
Candida albicans [16] = test: Antifungal activity against Candida albicans MTCC 227 at 50 ug/ml by cup-plate method; conditions: for zone of inhibition at 50 µg/mL: read-out: DIZ
Pseudomonas aeruginosa [17] = test: Antibacterial activity against Pseudomonas aeruginosa MTCC 2453 at 50 ug/ml by cup-plate method; conditions: for zone of inhibition at 50 µg/mL: read-out: DIZ
Escherichia coli [18] = test: Antibacterial activity against Escherichia coli MTCC 739 at 50 ug/ml by cup-plate method; conditions: for zone of inhibition at 50 µg/mL: read-out: DIZ
Bacillus subtilis [19] = test: Antibacterial activity against Bacillus subtilis MTCC 121 at 50 ug/ml by cup plate method; conditions: read-out: DIZ
Staphylococcus aureus [20] = test: Antibacterial activity against Staphylococcus aureus MTCC 96 at 50 ug/ml by cup-plate method; conditions: read-out: DIZ

| Structure (SMILES) | zone of inhibition at 300 µg/mL (Escherichia coli [3]) | zone of inhibition at 200 µg/mL (Escherichia coli [5]) | zone of inhibition at 100 µg/mL (Escherichia coli [6]) | zone of inhibition at 300 µg/mL (Pseudomonas aeruginosa [7]) | zone of inhibition at 200 µg/mL (Pseudomonas aeruginosa [8]) | zone of inhibition at 100 µg/mL (Pseudomonas aeruginosa [9]) | zone of inhibition at 300 µg/mL (Bacillus subtilis [10]) | zone of inhibition at 200 µg/mL (Bacillus subtilis [11]) | zone of inhibition at 100 µg/mL (Bacillus subtilis [12]) | zone of inhibition at 300 µg/mL (Staphylococcus aureus [13]) | zone of inhibition at 200 µg/mL (Staphylococcus aureus [14]) | zone of inhibition at 100 µg/mL (Staphylococcus aureus [15]) | zone of inhibition at 50 µg/mL (Pseudomonas aeruginosa [17]) | zone of inhibition at 50 µg/mL (Escherichia coli [18]) | zone of inhibition at 50 µg/mL (Bacillus subtilis [19]) | zone of inhibition at 50 µg/mL (Staphylococcus aureus [20]) | diameter of the inhibition zone (DIZ) (Candida albicans [1]) | diameter of the inhibition zone (DIZ) (Candida albicans [2]) | diameter of the inhibition zone (DIZ) (Candida albicans [4]) | diameter of the inhibition zone (DIZ) (Candida albicans [16]) | further results |
| --- | --- | --- | --- | --- | --- | --- | --- | --- | --- | --- | --- | --- | --- | --- | --- | --- | --- | --- | --- | --- | --- |
| O=C1N/C(=N\c2ccccc2[N+](=O)[O-])S/C1=C\c1ccccc1Cl | 12 mm | 10 mm | 10 mm | 15 mm | 12 mm | 10 mm | 18 mm | 15 mm | 13 mm | 15 mm | 14 mm | 12 mm | 8 mm | 9 mm | 11 mm | 11 mm |  |  |  |  | zone of inhibition at 300 µg/mL (Candida albicans [1]): 19 mm; zone of inhibition at 200 µg/mL (Candida albicans [2]): 18 mm; zone of inhibition at 100 µg/mL (Candida albicans [4]): 16 mm; zone of inhibition at 50 µg/mL (Candida albicans [16]): 10 mm |
| O=C1N/C(=N\c2ccc([N+](=O)[O-])cc2)S/C1=C\c1ccc(O)cc1 | 15 mm | 13 mm | 12 mm | 12 mm | 11 mm | 11 mm | 15 mm | 14 mm | 12 mm | 15 mm | 13 mm | 12 mm | 10 mm | 11 mm | 11 mm | 11 mm | inactive | inactive | inactive | inactive |  |
| O=C1N/C(=N\c2ccc([N+](=O)[O-])cc2)S/C1=C\c1ccccc1 | 15 mm | 13 mm | 12 mm | 13 mm | 11 mm | 10 mm | 15 mm | 13 mm | 12 mm | 16 mm | 14 mm | 13 mm | 10 mm | 11 mm | 11 mm | 12 mm | inactive | inactive | inactive | inactive |  |
| COc1cc(/C=C2\S/C(=N/c3ccccc3[N+](=O)[O-])NC2=O)ccc1O |  |  |  |  |  |  | 12 mm | 10 mm | 8 mm | 8 mm | 8 mm | 8 mm |  |  | 8 mm | 7 mm | inactive | inactive | inactive | inactive | diameter of the inhibition zone (DIZ) (Escherichia coli [3]): inactive; diameter of the inhibition zone (DIZ) (Escherichia coli [5]): inactive; diameter of the inhibition zone (DIZ) (Escherichia coli [6]): inactive; diameter of the inhibition zone (DIZ) (Pseudomonas aeruginosa [7]): inactive; diameter of the inhibition zone (DIZ) (Pseudomonas aeruginosa [8]): inactive; diameter of the inhibition zone (DIZ) (Pseudomonas aeruginosa [9]): inactive; diameter of the inhibition zone (DIZ) (Pseudomonas aeruginosa [17]): inactive; diameter of the inhibition zone (DIZ) (Escherichia coli [18]): inactive |
| O=C1N/C(=N\c2ccc([N+](=O)[O-])cc2)S/C1=C\c1cccc([N+](=O)[O-])c1 | 12 mm | 12 mm | 11 mm | 12 mm | 12 mm | 11 mm | 15 mm | 13 mm | 12 mm | 17 mm | 16 mm | 15 mm | 10 mm | 11 mm | 11 mm | 11 mm | inactive | inactive | inactive | inactive |  |
| O=C(O)c1cn(C2CC2)c2cc(N3CCNCC3)c(F)cc2c1=O [CIPROFLOXACIN] |  |  | 28 mm |  |  | 18 mm |  |  | 22 mm |  |  | 19 mm |  |  |  |  |  |  | inactive |  |  |
| O=C1N/C(=N\c2ccccc2[N+](=O)[O-])S/C1=C\c1ccc(O)cc1 |  |  |  |  |  |  | 11 mm | 10 mm | 10 mm | 11 mm | 10 mm | 10 mm |  |  | 10 mm | 10 mm | inactive | inactive | inactive | inactive | diameter of the inhibition zone (DIZ) (Escherichia coli [3]): inactive; diameter of the inhibition zone (DIZ) (Escherichia coli [5]): inactive; diameter of the inhibition zone (DIZ) (Escherichia coli [6]): inactive; diameter of the inhibition zone (DIZ) (Pseudomonas aeruginosa [7]): inactive; diameter of the inhibition zone (DIZ) (Pseudomonas aeruginosa [8]): inactive; diameter of the inhibition zone (DIZ) (Pseudomonas aeruginosa [9]): inactive; diameter of the inhibition zone (DIZ) (Pseudomonas aeruginosa [17]): inactive; diameter of the inhibition zone (DIZ) (Escherichia coli [18]): inactive |
| O=C1N/C(=N\c2ccc([N+](=O)[O-])cc2)S/C1=C\c1ccccc1Cl | 16 mm | 15 mm | 14 mm | 17 mm | 16 mm | 14 mm | 17 mm | 15 mm | 14 mm | 19 mm | 17 mm | 16 mm | 13 mm | 13 mm | 13 mm | 15 mm | inactive | inactive | inactive | inactive |  |
| O=C1N/C(=N\c2ccccc2[N+](=O)[O-])S/C1=C\c1ccccc1[N+](=O)[O-] | 11 mm | 10 mm | 8 mm | 13 mm | 13 mm | 10 mm | 10 mm | 10 mm | 9 mm | 14 mm | 13 mm | 10 mm | 10 mm | 8 mm | 9 mm | 10 mm |  |  |  |  | zone of inhibition at 300 µg/mL (Candida albicans [1]): 26 mm; zone of inhibition at 200 µg/mL (Candida albicans [2]): 23 mm; zone of inhibition at 100 µg/mL (Candida albicans [4]): 16 mm; zone of inhibition at 50 µg/mL (Candida albicans [16]): 10 mm |
| O=C1N/C(=N\c2ccc([N+](=O)[O-])cc2)S/C1=C\c1ccc(Cl)cc1 | 18 mm | 16 mm | 16 mm | 14 mm | 13 mm | 12 mm | 18 mm | 17 mm | 16 mm | 17 mm | 15 mm | 14 mm | 11 mm | 15 mm | 15 mm | 13 mm | inactive | inactive | inactive | inactive |  |
| COc1cc(/C=C2\S/C(=N/c3ccc([N+](=O)[O-])cc3)NC2=O)ccc1O | 13 mm | 12 mm | 12 mm | 17 mm | 15 mm | 15 mm | 15 mm | 14 mm | 12 mm | 17 mm | 16 mm | 15 mm | 14 mm | 11 mm | 11 mm | 14 mm | inactive | inactive | inactive | inactive |  |
| OC(Cn1cncn1)(Cn1cncn1)c1ccc(F)cc1F [FLUCONAZOLE] |  |  |  |  |  |  |  |  |  |  |  |  |  |  |  |  |  |  |  |  | zone of inhibition at 100 µg/mL (Candida albicans [4]): 35 mm |
